# ChEMBL document CHEMBL5316326, “Discovery of a Novel Covalent EZH2 Inhibitor Based on Tazemetostat Scaffold for the Treatment of Ovarian Cancer” (J Med Chem, 2023)
# Active and inactive are the calls of the source. The rule behind the calls is not given here.
# Experiments:
# [1] = molecular target: T1, Histone-lysine N-methyltransferase EZH2 (Homo sapiens, UniProt Q15910); test: Inhibition of wild type EZH2 (unknown origin) by AlphaLlSA assay
# Target sequence in this assay (Q15910 whole entry): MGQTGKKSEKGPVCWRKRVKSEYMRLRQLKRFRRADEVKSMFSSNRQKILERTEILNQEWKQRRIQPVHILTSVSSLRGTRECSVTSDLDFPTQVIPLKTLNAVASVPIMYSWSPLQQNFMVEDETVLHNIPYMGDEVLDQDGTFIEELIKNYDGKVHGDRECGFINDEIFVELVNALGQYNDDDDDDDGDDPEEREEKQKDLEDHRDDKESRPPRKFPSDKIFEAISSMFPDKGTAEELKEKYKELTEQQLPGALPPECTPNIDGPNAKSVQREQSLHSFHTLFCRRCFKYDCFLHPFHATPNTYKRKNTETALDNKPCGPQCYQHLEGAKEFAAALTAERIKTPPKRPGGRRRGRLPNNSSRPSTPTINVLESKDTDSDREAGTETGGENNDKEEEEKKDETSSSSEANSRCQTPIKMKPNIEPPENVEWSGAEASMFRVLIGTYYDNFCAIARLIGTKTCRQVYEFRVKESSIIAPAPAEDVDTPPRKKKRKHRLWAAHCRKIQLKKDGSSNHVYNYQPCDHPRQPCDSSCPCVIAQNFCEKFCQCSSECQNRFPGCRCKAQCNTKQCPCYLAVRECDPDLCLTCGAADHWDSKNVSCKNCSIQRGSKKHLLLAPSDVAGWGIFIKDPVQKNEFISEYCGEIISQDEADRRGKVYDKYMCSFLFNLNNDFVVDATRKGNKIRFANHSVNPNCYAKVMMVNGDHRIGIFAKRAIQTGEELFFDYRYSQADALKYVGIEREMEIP
# [2] = test system: A549; test: Antiproliferative activity against human A549 cells assessed as inhibition of cell proliferation incubated for 72 hrs by MTT assay; format: functional, cell-based; conditions: A549, 72 h
# [3] = test system: NCI-H1703; test: Antiproliferative activity against human NCI-H1703 cells assessed as inhibition of cell proliferation incubated for 72 hrs by MTT assay; format: functional, cell-based; conditions: NCI-H1703, 72 h
# [4] = test system: HEY; test: Antiproliferative activity against human HEY cells assessed as inhibition of cell proliferation incubated for 72 hrs by MTT assay; format: functional, cell-based
# [5] = test system: SK-BR-3; test: Antiproliferative activity against human SK-BR-3 cells assessed as inhibition of cell proliferation incubated for 72 hrs by MTT assay; format: functional, cell-based; conditions: SK-BR-3, 72 h
# [6] = test system: A2780; test: Antiproliferative activity against human A2780 cells assessed as inhibition of cell proliferation incubated for 72 hrs by MTT assay; format: functional, cell-based; conditions: A2780, 72 h
# [7] = test system: PA-1; test: Antiproliferative activity against human PA-1 cells assessed as inhibition of cell proliferation incubated for 72 hrs by MTT assay; format: functional, cell-based; conditions: PA-1, 72 h
# [8] = test system: OVCAR-3; test: Antiproliferative activity against human OVCAR-3 cells assessed as inhibition of cell proliferation incubated for 72 hrs by MTT assay; format: functional, cell-based; conditions: OVCAR-3, 72 h
# [9] = test system: OAW-42; test: Antiproliferative activity against human OAW-42 cells assessed as inhibition of cell proliferation incubated for 72 hrs by MTT assay; format: functional, cell-based; conditions: OAW-42, 72 h
# [10] = Antiproliferative activity against human COV362 cells assessed as inhibition of cell proliferation incubated for 72 hrs by MTT assay; format: functional, cell-based; conditions: COV362, 72 h
# [11] = test system: ES-2; test: Antiproliferative activity against human ES2 cells assessed as inhibition of cell proliferation incubated for 72 hrs by MTT assay; format: functional, cell-based; conditions: ES-2, 72 h
# [12] = test system: SK-OV-3; test: Antiproliferative activity against human SK-OV-3 cells assessed as inhibition of cell proliferation incubated for 72 hrs by MTT assay; format: functional, cell-based; conditions: SK-OV-3, 72 h
# [13] = test system: 4T1; test: Antiproliferative activity against mouse 4T1 cells assessed as inhibition of cell proliferation incubated for 72 hrs by MTT assay; format: functional, cell-based; conditions: 4T1, 72 h
# [14] = test system: BT-549; test: Antiproliferative activity against human BT-549 cells assessed as inhibition of cell proliferation incubated for 72 hrs by MTT assay; format: functional, cell-based; conditions: BT-549, 72 h
# [15] = test system: MCF7; test: Antiproliferative activity against human MCF7 cells assessed as inhibition of cell proliferation incubated for 72 hrs by MTT assay; format: functional, cell-based; conditions: MCF7, 72 h
# [16] = test system: PA-1; test: Antiproliferative activity against human PA-1 cells assessed as reduction in cell viability at 10 uM incubated for 3 days followed by compound washout and measured after 4 days by microscopy analysis; format: functional, cell-based; conditions: time 3.0 day
# [17] = test system: PA-1; test: Antitumor activity against human PA-1 cells xenografted in BALB/C nude mouse assessed as tumor growth inhibition at 150 mg/kg,po BID for 21 days; format: functional; conditions: PA-1, 504 h, time 21 day, read-out: TGI
# [18] = molecular target: T1, Histone-lysine N-methyltransferase EZH2; test: Binding affinity to wild type recombinant EZH2 (494 to 737 residues) (unknown origin) expressed in Escherichia coli assessed as adduct formation incubated for 2 hrs by LC-MS analysis
# Target sequence in this assay (Q15910 whole entry, looked up): as the sequence (Q15910 whole entry) above
# [19] = test system: PA-1; test: Inhibition of colony formation in human PA-1 cells assessed as reduction in size of colonies at 0.25 to 10 uM incubated for 14 days with medium change every 3 days by crystal violet staining method; format: functional, cell-based; conditions: dose 0.25-10 µM, time 14.0 day
# [20] = test system: A2780; test: Inhibition of colony formation in human A2780 cells assessed as reduction in number of colonies at 0.25 to 10 uM incubated for 14 days with medium change every 3 days by crystal violet staining method; format: functional, cell-based; conditions: dose 0.25-10 µM, time 14.0 day
# [21] = molecular target: T1, Histone-lysine N-methyltransferase EZH2; test: Inhibition of EZH2 methyltransferase activity in human A2780 cells assessed as reduction in H3K27me3 level incubated for 3 days by Western blot analysis; format: cell-based
# Target sequence in this assay (Q15910 whole entry): as above
# [22] = test system: A2780; test: Inhibition of colony formation in human A2780 cells assessed as reduction in size of colonies at 0.25 to 10 uM incubated for 14 days with medium change every 3 days by crystal violet staining method; format: functional, cell-based; conditions: dose 0.25-10 µM, time 14.0 day
# [23] = test system: PA-1; test: Inhibition of colony formation in human PA-1 cells assessed as reduction in number of colonies at 0.25 to 10 uM incubated for 14 days with medium change every 3 days by crystal violet staining method; format: functional, cell-based; conditions: dose 0.25-10 µM, time 14.0 day
IC50 [1],IC50 [2],IC50 [3],IC50 [5],IC50 [6],IC50 [8],IC50 [12],IC50 [13],IC50 [14],IC50 [15],SMILES,IC50 [4],IC50 [7],IC50 [9],IC50 [10],IC50 [11],also measured
1.1 µM,–,–,–,–,–,–,–,–,–,"CCOCCNC(=O)/C(C)=C/C[C@@]12OC(C)(C)C3C[C@@H](C=C4C(=O)c5c(O)c(C/C=C(\C)CCC=C(C)C)c(O)c(CC=C(C)C)c5O[C@]431)C2=O (single isomer, unassigned)",–,–,–,–,–,–
–,> 100 µM,> 100 µM,> 100 µM,34.4 µM,> 100 µM,> 100 µM,58.4 µM,> 100 µM,> 100 µM,CCC(=O)Nc1cccc(-c2cc(C(=O)NCc3c(C)cc(C)[nH]c3=O)c(C)c(N(CC)C3CCOCC3)c2)c1,> 100 µM,> 100 µM,> 100 µM,> 100 µM,> 100 µM,–
0.00301 µM,> 100 µM,69 µM,> 100 µM,60.4 µM,> 100 µM,> 100 µM,> 100 µM,> 100 µM,> 100 µM,CCC(=O)Nc1ccc(C)c(-c2cc(C(=O)NCc3c(C)cc(C)[nH]c3=O)c(C)c(N(CC)C3CCOCC3)c2)c1,> 100 µM,78.3 µM,> 100 µM,> 100 µM,89.5 µM,Activity [18]: inactive; inhibition [19]: Dose-Dependent Effect; inhibition [20]: Dose-Dependent Effect; IC50 [21]: 4.72 µM; inhibition [22]: Dose-Dependent Effect; Activity [16]: inactive; inhibition [23]: Dose-Dependent Effect
0.00164 µM,33.3 µM,37.4 µM,66.2 µM,15.7 µM,> 100 µM,41.8 µM,31 µM,60.2 µM,63.3 µM,C=CC(=O)Nc1cccc(-c2cc(C(=O)NCc3c(C)cc(C)[nH]c3=O)c(C)c(N(CC)C3CCOCC3)c2)c1,66.7 µM,24.7 µM,> 100 µM,> 100 µM,38.6 µM,–

# Further lines, the compound ahead of its results:
SMILES,IC50 [1],IC50 [2],IC50 [3],IC50 [5],IC50 [6],IC50 [8],IC50 [12],IC50 [13],IC50 [14],IC50 [15],IC50 [4],IC50 [7],IC50 [9],IC50 [10],IC50 [11],also measured
CC[C@H](C)n1cc(C)c2c(C(=O)NCc3c(C)cc(C)[nH]c3=O)cc(-c3ccc(N4CCNCC4)nc3)cc21 [GSK2816126],–,23 µM,> 100 µM,15.5 µM,12 µM,29.8 µM,68.4 µM,10.4 µM,23.3 µM,18.8 µM,> 100 µM,12.2 µM,55.4 µM,> 100 µM,32.2 µM,–
CCN(c1cc(-c2ccc(CN3CCOCC3)cc2)cc(C(=O)NCc2c(C)cc(C)[nH]c2=O)c1C)C1CCOCC1 [TAZEMETOSTAT],–,> 100 µM,> 100 µM,67.1 µM,47 µM,> 100 µM,89.8 µM,29.3 µM,58.2 µM,> 100 µM,> 100 µM,46.6 µM,> 100 µM,> 100 µM,79 µM,Activity [16]: inactive; inhibition in vivo at 150 mg/kg [17]: 56.8%
C=CC(=O)NCc1ccc(-c2cc(C(=O)NCc3c4c(c(C)[nH]c3=O)CCCC4)c(C)c(N(CC)C3CCOCC3)c2)cc1,0.0108 µM,–,–,–,–,–,–,–,–,–,–,–,–,–,–,Activity [18]: inactive
